Assay [1] addresses T1, NIH-3T3 cells overexpressing human IR (Homo sapiens, UniProt P06213).
T1 construct: expressed in transfected cells; host or cells: NIH-3T3 (mouse fibroblasts)
Briefly: IR cellular autophosphorylation (DELFIA). Format: cell-based. To be noted: 2 h compound, insulin 3 ug/ml for 15 minutes, IC50 category. The method in brief:
(§1)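 Receptor autophosphorylation measured by DELFIA, capturing IGF-1R or IRβ and detecting with europium anti-pTyr, reported as percent of IGF-1- or insulin-stimulated signal. Compounds (30 uM to 1.5 nM) added 2 h before ligand, then 15 min stimulation (IGF-1 30 ng/ml or insulin 3 ug/ml).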

For assay [2], the target named is T2, NIH-3T3 cells overexpressing human IGF-1R (Homo sapiens, UniProt P08069).
T2 construct: expressed in transfected cells; host or cells: NIH-3T3 (mouse fibroblasts)
As to the kind of experiment: IGF-1R cellular autophosphorylation (DELFIA). Format: cell-based. The method in brief: as §1

Assay [3] addresses T3, human IR (hIR) (Homo sapiens, UniProt P06213).
T3 construct: containing amino acid residues 979-1382 of human IR; made in house; host or cells: Sf9 cells (baculovirus), same process as hIGF1R
Briefly: TR-FRET kinase assay of purified hIR. Type of assay: biochemical. As to conditions: activated hIR 0.5 nM, 10 μM ATP, values given as pIC50 category. For orientation: TR-FRET usually uses a lanthanide donor and a delayed reading to cut background.

Assay [4] deals with T4, human IGF1R (hIGF1R) (Homo sapiens, UniProt P08069).
T4 construct: containing amino acid residues 957-1367 of human IGF1R; made in house; host or cells: Sf9 cells (baculovirus)
Briefly: TR-FRET kinase assay of purified hIGF1R. To be noted: activated hIGF1R 0.5 nM, 10 μM ATP, values given as pIC50 category, read-out: IGF-1R pIC50 (converted). Type of assay: biochemical.

Structures are written as SMILES.

T4 sequence (P08069 957-1367): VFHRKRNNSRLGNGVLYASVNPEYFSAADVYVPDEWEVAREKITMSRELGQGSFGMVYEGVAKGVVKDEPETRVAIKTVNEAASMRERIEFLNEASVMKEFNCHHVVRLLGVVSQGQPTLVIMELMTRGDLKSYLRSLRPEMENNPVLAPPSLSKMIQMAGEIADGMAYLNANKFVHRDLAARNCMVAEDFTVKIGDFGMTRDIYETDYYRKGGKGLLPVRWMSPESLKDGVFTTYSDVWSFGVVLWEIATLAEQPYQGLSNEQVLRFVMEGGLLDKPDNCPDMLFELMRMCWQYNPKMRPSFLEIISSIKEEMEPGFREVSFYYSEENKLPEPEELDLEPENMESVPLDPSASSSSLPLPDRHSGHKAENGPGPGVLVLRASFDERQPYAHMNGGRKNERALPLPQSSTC
T1 sequence (P06213 28-1382): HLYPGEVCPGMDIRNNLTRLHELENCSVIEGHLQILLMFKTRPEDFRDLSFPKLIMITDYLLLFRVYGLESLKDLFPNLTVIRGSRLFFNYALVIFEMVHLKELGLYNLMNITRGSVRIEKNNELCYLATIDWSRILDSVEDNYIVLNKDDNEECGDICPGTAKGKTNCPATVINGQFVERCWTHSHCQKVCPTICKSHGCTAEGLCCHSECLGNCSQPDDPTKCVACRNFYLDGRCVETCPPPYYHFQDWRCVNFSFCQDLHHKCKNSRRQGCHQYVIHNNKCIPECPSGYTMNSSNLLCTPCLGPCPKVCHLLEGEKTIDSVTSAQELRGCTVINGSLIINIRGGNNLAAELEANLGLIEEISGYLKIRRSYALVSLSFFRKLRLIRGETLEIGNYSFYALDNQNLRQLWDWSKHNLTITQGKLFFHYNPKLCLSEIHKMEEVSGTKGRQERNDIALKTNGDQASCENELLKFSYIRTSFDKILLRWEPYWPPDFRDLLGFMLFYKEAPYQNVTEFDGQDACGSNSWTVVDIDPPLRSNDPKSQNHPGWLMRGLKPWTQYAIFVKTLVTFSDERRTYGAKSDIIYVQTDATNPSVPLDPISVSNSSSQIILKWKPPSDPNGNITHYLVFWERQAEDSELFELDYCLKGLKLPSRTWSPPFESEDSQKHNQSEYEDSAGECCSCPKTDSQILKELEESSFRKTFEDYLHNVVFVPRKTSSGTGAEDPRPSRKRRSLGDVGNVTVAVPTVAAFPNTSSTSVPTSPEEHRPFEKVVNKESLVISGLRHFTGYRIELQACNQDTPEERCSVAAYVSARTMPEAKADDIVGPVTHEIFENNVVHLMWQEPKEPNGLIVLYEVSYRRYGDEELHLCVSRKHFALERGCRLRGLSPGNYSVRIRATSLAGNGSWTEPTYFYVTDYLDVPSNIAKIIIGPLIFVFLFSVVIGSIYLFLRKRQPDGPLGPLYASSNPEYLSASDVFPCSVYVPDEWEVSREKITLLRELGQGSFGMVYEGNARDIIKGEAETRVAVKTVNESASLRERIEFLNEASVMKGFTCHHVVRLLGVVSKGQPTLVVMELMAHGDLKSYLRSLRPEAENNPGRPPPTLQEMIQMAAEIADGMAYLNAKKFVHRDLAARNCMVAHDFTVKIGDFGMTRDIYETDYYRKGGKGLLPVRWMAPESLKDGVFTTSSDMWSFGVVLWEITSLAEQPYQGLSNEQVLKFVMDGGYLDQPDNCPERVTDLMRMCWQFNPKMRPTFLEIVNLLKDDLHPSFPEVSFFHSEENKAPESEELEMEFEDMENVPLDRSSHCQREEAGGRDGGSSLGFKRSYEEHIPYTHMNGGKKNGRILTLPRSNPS
T3 sequence (P06213 979-1382): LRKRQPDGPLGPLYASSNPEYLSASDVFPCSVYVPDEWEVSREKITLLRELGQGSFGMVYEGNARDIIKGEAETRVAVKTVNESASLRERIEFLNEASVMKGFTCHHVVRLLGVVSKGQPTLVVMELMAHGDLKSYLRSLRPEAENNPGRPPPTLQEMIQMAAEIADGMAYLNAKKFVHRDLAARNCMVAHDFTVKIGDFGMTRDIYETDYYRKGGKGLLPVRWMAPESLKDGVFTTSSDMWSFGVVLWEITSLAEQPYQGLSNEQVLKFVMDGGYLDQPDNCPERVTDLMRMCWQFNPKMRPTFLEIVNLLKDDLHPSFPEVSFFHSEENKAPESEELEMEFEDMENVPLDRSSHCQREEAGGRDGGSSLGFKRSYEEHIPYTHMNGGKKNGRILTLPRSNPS
T2 sequence (P08069 31-1367): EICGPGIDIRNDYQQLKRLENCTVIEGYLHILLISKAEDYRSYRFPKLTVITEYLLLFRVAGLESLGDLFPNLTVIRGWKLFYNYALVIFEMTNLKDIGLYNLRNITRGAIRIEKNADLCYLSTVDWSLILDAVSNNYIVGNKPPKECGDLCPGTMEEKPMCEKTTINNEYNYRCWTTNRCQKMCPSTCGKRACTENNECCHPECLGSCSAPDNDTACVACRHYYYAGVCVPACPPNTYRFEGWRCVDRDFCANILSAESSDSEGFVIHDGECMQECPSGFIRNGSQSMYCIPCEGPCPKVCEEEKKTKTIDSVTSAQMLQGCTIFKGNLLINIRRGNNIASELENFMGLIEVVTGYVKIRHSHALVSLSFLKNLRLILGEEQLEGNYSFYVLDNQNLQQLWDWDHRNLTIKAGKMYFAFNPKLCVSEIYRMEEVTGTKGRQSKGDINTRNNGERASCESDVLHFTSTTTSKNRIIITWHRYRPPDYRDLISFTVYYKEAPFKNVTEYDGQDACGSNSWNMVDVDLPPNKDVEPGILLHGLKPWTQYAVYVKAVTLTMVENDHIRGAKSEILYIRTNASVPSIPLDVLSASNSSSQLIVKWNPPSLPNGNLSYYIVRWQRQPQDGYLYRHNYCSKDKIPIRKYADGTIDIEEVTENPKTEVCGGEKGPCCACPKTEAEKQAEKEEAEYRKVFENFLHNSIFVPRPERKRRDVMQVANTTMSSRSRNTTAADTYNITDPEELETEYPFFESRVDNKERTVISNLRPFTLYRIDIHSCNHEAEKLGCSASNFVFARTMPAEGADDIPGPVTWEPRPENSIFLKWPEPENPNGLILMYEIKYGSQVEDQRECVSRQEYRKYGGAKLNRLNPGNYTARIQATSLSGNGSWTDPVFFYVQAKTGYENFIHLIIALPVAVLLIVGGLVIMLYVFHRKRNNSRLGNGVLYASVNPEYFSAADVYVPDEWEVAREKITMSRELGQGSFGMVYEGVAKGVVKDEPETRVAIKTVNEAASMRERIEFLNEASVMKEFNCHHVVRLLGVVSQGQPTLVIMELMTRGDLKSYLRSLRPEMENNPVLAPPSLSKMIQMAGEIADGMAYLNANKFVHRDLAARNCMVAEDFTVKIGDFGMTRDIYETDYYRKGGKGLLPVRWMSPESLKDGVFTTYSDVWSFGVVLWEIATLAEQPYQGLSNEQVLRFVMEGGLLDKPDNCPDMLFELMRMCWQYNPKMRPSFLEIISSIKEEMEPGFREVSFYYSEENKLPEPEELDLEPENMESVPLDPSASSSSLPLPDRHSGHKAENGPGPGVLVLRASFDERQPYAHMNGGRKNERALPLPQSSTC

Turning to `CCCN1CCC(c2ccc(Nc3nc(Nc4cc(F)cc(F)c4C(N)=O)c4cc[nH]c4n3)c(OC)c2)CC1` [Example 92, 2,4-difluoro-6-[(2-{[2-(methyloxy)-4-(1-propyl-4-piperidinyl)phenyl]amino}-1H-pyrrolo[2,3-d]pyrimidin-4-yl)amino]benzamide], the IC50 was under 100 nM in assay [1], under 100 nM in assay [2], 0.251 to 1 nM in assay [3] and 0.251 to 1 nM in assay [4].
Regarding `COc1cc2c(cc1Nc1nc(Nc3cccc(F)c3C(N)=O)c3cc[nH]c3n1)N(C(=O)CN(C)C)CCC2` [Example 210, 2-[(2-{[1-(N,N-dimethylglycyl)-6-(methyloxy)-1,2,3,4-tetrahydro-7-quinolinyl]amino}-1H-pyrrolo[2,3-d]pyrimidin-4-yl)amino]-6-fluorobenzamide], the IC50 was under 100 nM in assay [1], under 100 nM in assay [2], 0.251 to 1 nM in assay [3] and 0.251 to 1 nM in assay [4].
As for `COc1cc(N2CCC(N3CCOCC3)CC2)ccc1Nc1nc(Nc2cc(F)ccc2C(N)=O)c2cc[nH]c2n1` [Example 78, 4-fluoro-2-{[2-({2-(methyloxy)-4-[4-(4-morpholinyl)-1-piperidinyl]phenyl}amino)-1H-pyrrolo[2,3-d]pyrimidin-4-yl]amino}benzamide], the IC50 in assay [1] is 100 to 500 nM; in assay [2], under 100 nM; in assay [3] it was 1.26 to 3.98 nM; in assay [4], 0.251 to 1 nM.
For `COc1cc2c(cc1Nc1nc(Nc3cccc(F)c3C(N)=O)c3cc[nH]c3n1)N(CCN(C)C)CC2` [Example 117, 2-[(2-{[1-[2-(dimethylamino)ethyl]-5-(methyloxy)-2,3-dihydro-1H-indol-6-yl]amino}-1H-pyrrolo[2,3-d]pyrimidin-4-yl)amino]-6-fluorobenzamide], the IC50 in assay [1] is over 500 nM; in assay [2], over 500 nM; in assay [3], 5.01 to 158 nM; in assay [4], 5.01 to 200 nM.
With `COc1ccc(NC(=O)CN(C)C)cc1Nc1nc(Nc2ccccc2C(N)=O)c2cc[nH]c2n1` [Example 15, 2-[(2-{[5-[(N,N-dimethylglycyl)amino]-2-(methyloxy)phenyl]amino}-1H-pyrrolo[2,3-d]pyrimidin-4-yl)amino]benzamide], the figures for the IC50 in assay [2], in assay [3] and in assay [4] were under 100 nM, 0.251 to 1 nM and 0.251 to 1 nM, respectively.
As to `COc1cc(N2CCN(C(C)C)CC2)ccc1Nc1nc(Nc2cc(F)cc(F)c2C(N)=O)c2cc[nH]c2n1` [Example 89, 2,4-difluoro-6-[(2-{[4-[4-(1-methylethyl)-1-piperazinyl]-2-(methyloxy)phenyl]amino}-1H-pyrrolo[2,3-d]pyrimidin-4-yl)amino]benzamide], the IC50 in assay [1] is under 100 nM; in assay [2], under 100 nM; in assay [3] it was 0.251 to 1 nM; in assay [4], 0.251 to 1 nM.
`CNC(=O)c1c(F)cccc1Nc1nc(Nc2cc3c(cc2OC)CCC(=O)N3)nc2[nH]ccc12` [Example 222, 2-fluoro-N-methyl-6-[(2-{[6-(methyloxy)-2-oxo-1,2,3,4-tetrahydro-7-quinolinyl]amino}-1H-pyrrolo[2,3-d]pyrimidin-4-yl)amino]benzamide]: the IC50 was over 500 nM in assay [1], over 500 nM in assay [2] and 5.01 to 200 nM in assay [4].
For the molecule `COc1cc2c(cc1Nc1nc(Nc3cccc(F)c3C(N)=O)c3cc(C)[nH]c3n1)N(C(=O)CN(C)C)CC2` [Example 262, 2-[(2-{[1-(N,N-dimethylglycyl)-5-(methyloxy)-2,3-dihydro-1H-indol-6-yl]amino}-6-methyl-1H-pyrrolo[2,3-d]pyrimidin-4-yl)amino]-6-fluorobenzamide], the IC50 in assay [1] was 100 to 500 nM; in assay [2], 100 to 500 nM; in assay [3], 5.01 to 158 nM; in assay [4], 5.01 to 200 nM.
Turning to `COc1cc2c(cc1Nc1nc(Nc3cccc(F)c3C(N)=O)c3cc[nH]c3n1)N(C(=O)CN(C)OC)CC2` [Example 144, 2-fluoro-6-[(2-{[1-[N-methyl-N-(methyloxy)glycyl]-5-(methyloxy)-2,3-dihydro-1H-indol-6-yl]amino}-1H-pyrrolo[2,3-d]pyrimidin-4-yl)amino]benzamide], the IC50 in assay [1] is over 500 nM; in assay [2], over 500 nM; in assay [3], 5.01 to 158 nM; in assay [4], 5.01 to 200 nM.
As for `COc1cc2c(cc1Nc1nc(Nc3cccc(F)c3C(N)=O)c3cc[nH]c3n1)N(C(=O)CCN1CCN(C(C)C)CC1)CC2` [Example 188, 2-fluoro-6-[(2-{[1-{3-[4-(1-methylethyl)-1-piperazinyl]propanoyl}-5-(methyloxy)-2,3-dihydro-1H-indol-6-yl]amino}-1H-pyrrolo[2,3-d]pyrimidin-4-yl)amino]benzamide], the IC50 was over 500 nM in assay [1], over 500 nM in assay [2], 5.01 to 158 nM in assay [3] and 5.01 to 200 nM in assay [4].
Consider `COc1ccc(OC[C@@H](O)CN(C)C)cc1Nc1nc(Nc2cc(F)ccc2C(N)=O)c2cc[nH]c2n1` [Example 86, 2-[(2-{[5-{[(2S)-3-(dimethylamino)-2-hydroxypropyl]oxy}-2-(methyloxy)phenyl]amino}-1H-pyrrolo[2,3-d]pyrimidin-4-yl)amino]-4-fluorobenzamide], for which the IC50 in assay [1] is over 500 nM; in assay [2], 100 to 500 nM; in assay [3], 0.251 to 1 nM; in assay [4], 0.251 to 1 nM.
`COc1cc(OCCCN2CCN(C)CC2)ccc1Nc1nc(Nc2cccc(F)c2C(N)=O)c2cc[nH]c2n1` [Example 205, 2-fluoro-6-({2-[(2-(methyloxy)-4-{[3-(4-methyl-1-piperazinyl)propyl]oxy}phenyl)amino]-1H-pyrrolo[2,3-d]pyrimidin-4-yl}amino)benzamide]: the IC50 in assay [1] is 100 to 500 nM; in assay [2], 100 to 500 nM; in assay [3] it was 1.26 to 3.98 nM; in assay [4] it was 5.01 to 200 nM.
Consider `COc1cc2c(cc1Nc1nc(Nc3cccc(F)c3C(N)=O)c3cc[nH]c3n1)N(C(=O)CCN(C)C)CCC2` [Example 214, 2-[(2-{[1-(N,N-dimethyl-β-alanyl)-6-(methyloxy)-1,2,3,4-tetrahydro-7-quinolinyl]amino}-1H-pyrrolo[2,3-d]pyrimidin-4-yl)amino]-6-fluorobenzamide], for which the IC50 in assay [1] is 100 to 500 nM; in assay [2], 100 to 500 nM; in assay [3], 5.01 to 158 nM; in assay [4], 5.01 to 200 nM.
As for `COc1cc(N2CCN(S(C)(=O)=O)CC2)ccc1Nc1nc(Nc2cccc(F)c2C(N)=O)c2cc[nH]c2n1` [Example 204, 2-fluoro-6-{[2-({2-(methyloxy)-4-[4-(methylsulfonyl)-1-piperazinyl]phenyl}amino)-1H-pyrrolo[2,3-d]pyrimidin-4-yl]amino}benzamide], the IC50 in assay [1] was over 500 nM; in assay [2] it was over 500 nM; in assay [3] it was 1.26 to 3.98 nM; in assay [4], 5.01 to 200 nM.
Turning to `CNC(=O)c1c(F)cccc1Nc1nc(Nc2cc3c(cc2OC)CCN3C(=O)CN(C)C)nc2[nH]cc(C)c12` [Example 258, 2-[(2-{[1-(N,N-dimethylglycyl)-5-(methyloxy)-2,3-dihydro-1H-indol-6-yl]amino}-5-methyl-1H-pyrrolo[2,3-d]pyrimidin-4-yl)amino]-6-fluoro-N-methylbenzamide], the IC50 was 100 to 500 nM in assay [1], 100 to 500 nM in assay [2], 0.251 to 1 nM in assay [3] and 0.251 to 1 nM in assay [4].
Take `COc1cc2c(cc1Nc1nc(Nc3cccc(F)c3C(N)=O)c3cc[nH]c3n1)N(C(=O)CN1CCOCC1)CC2` [Example 185, 2-fluoro-6-[(2-{[5-(methyloxy)-1-(4-morpholinylacetyl)-2,3-dihydro-1H-indol-6-yl]amino}-1H-pyrrolo[2,3-d]pyrimidin-4-yl)amino]benzamide]: the IC50 in assay [1] was over 500 nM; in assay [2] it was under 100 nM; in assay [3], 5.01 to 158 nM; in assay [4] it was 5.01 to 200 nM.
On to `COc1ccc(C(N)=O)c(Nc2nc(Nc3ccc(N4CCOC[C@@H]4C)cc3OC)nc3[nH]ccc23)c1` [Example 39, 2-[(2-{[4-[(3S)-3-methyl-4-morpholinyl]-2-(methyloxy)phenyl]amino}-1H-pyrrolo[2,3-d]pyrimidin-4-yl)amino]-4-(methyloxy)benzamide], for which the IC50 was 100 to 500 nM in assay [2], 1.26 to 3.98 nM in assay [3] and 5.01 to 200 nM in assay [4].
As for `CN(C)CC(=O)Nc1ccc(F)c(Nc2nc(Nc3ccccc3C(N)=O)c3cc[nH]c3n2)c1` [Example 17, 2-{[2-({5-[(N,N-dimethylglycyl)amino]-2-fluorophenyl}amino)-1H-pyrrolo[2,3-d]pyrimidin-4-yl]amino}benzamide], the IC50 in assay [2] is under 100 nM; in assay [3], 0.251 to 1 nM; in assay [4] it was 0.251 to 1 nM.
As for `COc1cc2c(cc1Nc1nc(Nc3cccc(F)c3C(N)=O)c3cc[nH]c3n1)N(C(=O)CN(C)C)CC2` [Example 53, 2-[(2-{[1-(N,N-dimethylglycyl)-5-(methyloxy)-2,3-dihydro-1H-indol-6-yl]amino}-1H-pyrrolo[2,3-d]pyrimidin-4-yl)amino]-6-fluorobenzamide], the IC50 in assay [1] was under 100 nM; in assay [2] it was under 100 nM; in assay [4], 0.251 to 1 nM.
`COc1cc2c(cc1Nc1nc(Nc3cc(F)cc(F)c3C(N)=O)c3cc[nH]c3n1)NCCC2` [Example 220, 2,4-difluoro-6-[(2-{[6-(methyloxy)-1,2,3,4-tetrahydro-7-quinolinyl]amino}-1H-pyrrolo[2,3-d]pyrimidin-4-yl)amino]benzamide]: the IC50 in assay [1] was over 500 nM; in assay [2] it was 100 to 500 nM; in assay [4], 5.01 to 200 nM.

These data come from US7981903B2, “2-[2-{phenylamino}-1H-pyrrolo[2,3-D]pyrimidin-4-yl)amino] benzamide derivatives as IGF-1R inhibitors for the treatment of cancer” (GlaxoSmithKline LLC, priority 2007, dated 2011).
